These are literature values, as cited in patent US7590494B1, “Drug design based on the structure of LTA4 hydrolase” (priority 1999, dated 2009).

For the data set, the target named is T1, LTA4 hydrolase (Homo sapiens, UniProt P09960).
T1 sequence (P09960 1-611): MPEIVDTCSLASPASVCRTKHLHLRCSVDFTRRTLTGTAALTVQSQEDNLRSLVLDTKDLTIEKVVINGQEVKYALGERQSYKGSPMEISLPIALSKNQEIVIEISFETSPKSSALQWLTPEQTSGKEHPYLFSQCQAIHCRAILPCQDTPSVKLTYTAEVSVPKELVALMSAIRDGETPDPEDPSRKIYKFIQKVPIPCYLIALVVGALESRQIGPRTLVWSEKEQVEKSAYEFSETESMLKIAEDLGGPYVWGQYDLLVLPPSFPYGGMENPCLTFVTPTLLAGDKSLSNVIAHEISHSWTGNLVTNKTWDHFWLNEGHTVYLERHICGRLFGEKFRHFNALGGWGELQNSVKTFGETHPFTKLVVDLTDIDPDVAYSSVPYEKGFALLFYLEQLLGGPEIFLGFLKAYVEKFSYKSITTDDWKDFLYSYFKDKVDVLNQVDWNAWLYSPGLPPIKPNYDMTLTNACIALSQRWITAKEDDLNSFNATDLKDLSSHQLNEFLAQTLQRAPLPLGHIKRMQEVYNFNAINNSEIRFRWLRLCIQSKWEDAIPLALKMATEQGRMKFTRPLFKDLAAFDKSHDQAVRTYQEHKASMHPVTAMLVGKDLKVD
The following applies: qualitative statement from Örning et al. 1991.

As for `CC(C)C[C@H](NC(=O)[C@@H](O)[C@H](N)Cc1ccccc1)C(=O)O` [bestatin], the “inhibition of LTA4 hydrolase” value is on record as “inhibited”.

Consider `C[C@H](CS)C(=O)N1CCC[C@H]1C(=O)O` [captopril], for which the “inhibition of LTA4 hydrolase” value is given as “inhibited”.
